The test deals with BDF1 mice, P388 leukemia ip, median survival T/C. The test is described as follows: NCI In Vivo Anticancer Drug Screen. Data for tumor model P388 Leukemia (intraperitoneal) in B6D2F1 (BDF1) mice. The note with it: endpoint: median survival time, higher = longer survival. Summed up: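 Transplantable tumour in mice; compound vs vehicle dosing; survival scored; ratio of treated to control reported.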

The mark [1] stands for this setting: dose: 100.0 mg/kg/injection, schedule: Q04DX003 (ip), vehicle: saline with Tween-80.
Where [2] appears, read: dose: 50.0 mg/kg/injection, schedule: Q01DX009 (ip), vehicle: saline with Tween-80.
Setting [3] is: dose: 100.0 mg/kg/injection, schedule: Q01DX009 (ip), vehicle: saline with Tween-80.
[4] abbreviates: dose: 200.0 mg/kg/injection, schedule: Q01DX009 (ip), vehicle: saline with Tween-80.
Where [5] appears, read: dose: 400.0 mg/kg/injection, schedule: Q01DX009 (ip), vehicle: saline.
Setting [6] is: dose: 200.0 mg/kg/injection, schedule: Q01DX009 (ip), vehicle: saline.
[7] abbreviates: dose: 100.0 mg/kg/injection, schedule: Q04DX003 (ip), vehicle: saline.

Drawing on PubChem BioAssay AID328 (DTP/NCI, 2004), this text covers T/C for 19 compounds.

Where “and” joins values, the source holds several entries; their conditions need not be identical. Equal values may be shown once. Inconclusive results and toxic doses are left out.

On to `IC12CC3CC(CC(C3)C1)C2`, for which the T/C was 90 % of control under setting [1]; 90 % of control (dose: 200.0 mg/kg/injection, schedule: Q04DX003 (ip), vehicle: saline with Tween-80); 86 % of control (dose: 400.0 mg/kg/injection, schedule: Q04DX003 (ip), vehicle: saline with Tween-80).

For `CN1C(=O)NNC(=O)c2ccccc21`, the T/C runs as follows: under setting [2], 106 % of control; under setting [3], 100 % of control; under setting [4], 97 % of control.

As for `CC1(COCCOCC2(C)CO2)CO1` (stereo not drawn), the T/C is 175 % of control under setting [5] and 208 % of control (dose: 600.0 mg/kg/injection, schedule: Q01DX009 (ip), vehicle: saline).

For `O/C(=C/C(=S)S)c1ccco1`, the T/C reads like this: (dose: 25.0 mg/kg/injection, schedule: Q01DX009 (ip), vehicle: water) 93 % of control; (dose: 25.0 mg/kg/injection, schedule: Q04DX003 (ip), vehicle: water) 94 % of control; (dose: 50.0 mg/kg/injection, schedule: Q01DX009 (ip), vehicle: water) 91 % of control; (dose: 50.0 mg/kg/injection, schedule: Q04DX003 (ip), vehicle: water) 93 % of control; (dose: 100.0 mg/kg/injection, schedule: Q01DX009 (ip), vehicle: water) 92 % of control; (dose: 200.0 mg/kg/injection, schedule: Q01DX009 (ip), vehicle: water) 102 % of control. For the same compound, the T/C is 93 % of control (dose: 200.0 mg/kg/injection, schedule: Q04DX003 (ip), vehicle: water); 93 % of control (dose: 400.0 mg/kg/injection, schedule: Q01DX009 (ip), vehicle: water); 97 % of control (dose: 400.0 mg/kg/injection, schedule: Q04DX003 (ip), vehicle: water).

Take `Cc1c2cnccc2c(C)c2c1c1ccccc1n2CCNCCO`: the T/C by setting is: (dose: 0.44 mg/kg/injection, schedule: Q04DX003 (ip), vehicle: saline) 118 % of control; (dose: 1.5 mg/kg/injection, schedule: Q04DX003 (ip), vehicle: saline) 109 % of control; under setting [1], 118 % of control; (dose: 150.0 mg/kg/injection, schedule: Q04DX003 (ip), vehicle: saline with Tween-80) 90 % of control.

For `CN1CCC(S)(S)CC1`, the T/C reads like this: (dose: 12.5 mg/kg/injection, schedule: Q04DX003 (ip), vehicle: saline with Tween-80) 100 % of control; (dose: 25.0 mg/kg/injection, schedule: Q04DX003 (ip), vehicle: saline with Tween-80) 100 % of control; (dose: 50.0 mg/kg/injection, schedule: Q04DX003 (ip), vehicle: saline with Tween-80) 109 % of control.

Consider `CC(C)(CO)COC(=O)NC1=C(N2CC2)C(=O)C(NC(=O)OCC(C)(C)CO)=C(N2CC2)C1=O`, for which the T/C is, setting by setting: (dose: 0.75 mg/kg/injection, schedule: Q01DX009 (ip), vehicle: water) 151 % of control and 157 % of control; (dose: 1.5 mg/kg/injection, schedule: Q01DX009 (ip), vehicle: water) 159 % of control and 178 % of control; (dose: 3.0 mg/kg/injection, schedule: Q01DX009 (ip), vehicle: water) 181 % of control and 200 % of control; (dose: 6.0 mg/kg/injection, schedule: Q01DX009 (ip), vehicle: water) 231 % of control and 205 % of control; (dose: 12.0 mg/kg/injection, schedule: Q01DX009 (ip), vehicle: water) 232 % of control and 312 % of control.

Regarding `O=c1[nH][nH]c(=O)n1O`, the T/C under setting [6] is 100 % of control and the T/C under setting [5] is 95 % of control.

For the compound `CNC1C(O)C(OC2C(N)CC(N)C(OC3OC(CN)C(O)C(O)C3O)C2O)OCC1(C)O` (stereo not drawn), the T/C is 100 % of control (dose: 100.0 mg/kg/injection, schedule: Q01DX009 (ip), vehicle: saline); 91 % of control under setting [6]; 108 % of control under setting [5].

In the case of `CC(=O)Nc1ccc(S(=O)(=O)SC(F)(F)F)cc1`, the T/C reads like this: (dose: 3.13 mg/kg/injection, schedule: Q01DX010 (ip), vehicle: saline) 100 % of control; (dose: 6.25 mg/kg/injection, schedule: Q01DX010 (ip), vehicle: saline) 104 % of control; (dose: 12.5 mg/kg/injection, schedule: Q01DX010 (ip), vehicle: saline) 100 % of control.

Consider `Cc1cccc(C)c1NC(=S)N(C)C`, for which the T/C was 100 % of control (dose: 3.13 mg/kg/injection, schedule: Q01DX009 (ip), vehicle: saline with Tween-80); 100 % of control (dose: 6.25 mg/kg/injection, schedule: Q01DX009 (ip), vehicle: saline with Tween-80); 109 % of control (dose: 12.0 mg/kg/injection, schedule: Q01DX001 (ip), vehicle: Klucel (hydroxypropylcellulose) (HPC)); 95 % of control (dose: 12.5 mg/kg/injection, schedule: Q01DX009 (ip), vehicle: saline with Tween-80); 100 % of control (dose: 25.0 mg/kg/injection, schedule: Q01DX001 (ip), vehicle: Klucel (hydroxypropylcellulose) (HPC)); 100 % of control (dose: 50.0 mg/kg/injection, schedule: Q01DX001 (ip), vehicle: Klucel (hydroxypropylcellulose) (HPC)). The T/C under setting [7] was 100 % of control.

In the case of `CC1C(=O)OC2CCN3CC4OC4(COC(=O)C(C)(O)C1(C)O)C23` (stereo not drawn), the T/C reads like this: (dose: 50.0 mg/kg/injection, schedule: Q01DX009 (ip), vehicle: Klucel (hydroxypropylcellulose) (HPC)) 95 % of control; (dose: 100.0 mg/kg/injection, schedule: Q01DX009 (ip), vehicle: Klucel (hydroxypropylcellulose) (HPC)) 95 % of control; (dose: 100.0 mg/kg/injection, schedule: Q04DX003 (ip), vehicle: saline sonified) 108 % of control; (dose: 200.0 mg/kg/injection, schedule: Q01DX009 (ip), vehicle: Klucel (hydroxypropylcellulose) (HPC)) 100 % of control; (dose: 400.0 mg/kg/injection, schedule: Q04DX003 (ip), vehicle: saline sonified) 95 % of control.

Take `CC1CCCC(c2ccccc2)C1` (stereo not drawn): the T/C reads like this: (dose: 50.0 mg/kg/injection, schedule: Q01DX001 (ip), vehicle: saline with Tween-80) 109 % of control; (dose: 100.0 mg/kg/injection, schedule: Q01DX001 (ip), vehicle: saline with Tween-80) 109 % of control; (dose: 200.0 mg/kg/injection, schedule: Q01DX001 (ip), vehicle: saline with Tween-80) 109 % of control.

Take `COC(=O)C1=C(C(=O)OC)C2C=CC1C1CC(OC(C)=O)C21` (stereo not drawn): the T/C runs as follows: under setting [2], 113 % of control; under setting [3], 113 % of control; under setting [4], 101 % of control.

As to `CC(C)(C)CN1CN(CC(C)(C)C)CN(CC(C)(C)C)C1`, the T/C runs as follows: (dose: 100.0 mg/kg/injection, schedule: Q04DX002 (ip), vehicle: saline with Tween-80) 94 % of control; (dose: 200.0 mg/kg/injection, schedule: Q04DX002 (ip), vehicle: saline with Tween-80) 97 % of control; (dose: 400.0 mg/kg/injection, schedule: Q04DX002 (ip), vehicle: saline with Tween-80) 94 % of control.

Turning to `O=C(CO)c1ccc([N+](=O)[O-])cc1`, under setting [2], the T/C is 106 % of control.

For the compound `CCC12C=CCN3CCC4(c5c(C(c6ccc(OC)cc6)c6c(CN(C)C)c7ccccc7n6C)cc(OC)cc5N(C)C4C(O)(C(=O)OC)C1OC(C)=O)C32` (stereo not drawn), the T/C (dose: 0.3 mg/kg/injection, schedule: Q01DX009 (ip), vehicle: saline) is 93 % of control; the T/C (dose: 0.6 mg/kg/injection, schedule: Q01DX009 (ip), vehicle: saline) was 98 % of control; the T/C (dose: 4.0 mg/kg/injection, schedule: Q01DX009 (ip), vehicle: saline) is 97 % of control; the T/C (dose: 8.0 mg/kg/injection, schedule: Q01DX009 (ip), vehicle: saline) was 96 % of control; the T/C (dose: 15.0 mg/kg/injection, schedule: Q01DX009 (ip), vehicle: saline) was 107 % of control; the T/C (dose: 16.0 mg/kg/injection, schedule: Q01DX009 (ip), vehicle: saline) is 95 % of control. Moreover, the T/C (dose: 60.0 mg/kg/injection, schedule: Q01DX009 (ip), vehicle: saline) was 123 % of control.

Consider `CC(=O)N1c2ccccc2C23CCN4CC5=CCOC(O)C(C5CC42)C13` (stereo not drawn), for which the T/C (dose: 30.0 mg/kg/injection, schedule: Q01DX009 (ip), vehicle: saline) is 152 % of control.

Regarding `CNNCc1ccc(C(=O)NC(N)=O)cc1`, the T/C is 95 % of control under setting [7]; 111 % of control (dose: 133.0 mg/kg/injection, schedule: Q01DX009 (ip), vehicle: saline); 100 % of control under setting [6]; 95 % of control (dose: 200.0 mg/kg/injection, schedule: Q04DX003 (ip), vehicle: saline); 107 % of control under setting [5]; 113 % of control (dose: 400.0 mg/kg/injection, schedule: Q04DX003 (ip), vehicle: saline).
